Reference: ChEMBL document CHEMBL2150981, “Discovery and optimization of benzotriazine di-N-oxides targeting replicating and nonreplicating Mycobacterium tuberculosis” (J Med Chem, 2012)
≈ marks a conversion by molar mass, not a printed value.

Experiments:
[1] = test system: Mycobacterium tuberculosis; experiment: Antitubercular activity against Mycobacterium tuberculosis H37Rv isolate SRI after 5 days by resazurin-based microplate assay; format: functional; settings: 120 h
[2] = test system: Mycobacterium tuberculosis; experiment: Antitubercular activity against Mycobacterium tuberculosis H37Rv isolate ITR after 7 days by luminescence spectrometry; format: functional; settings: 168 h
[3] = test system: Mycobacterium tuberculosis; experiment: Antitubercular activity against Mycobacterium tuberculosis H37Rv incubated for 10 days in anaerobic condition followed by 48 hrs incubation in aerobic condition by LORA assay; format: functional
Vero = experiment: Cytotoxicity against african green monkey Vero cells after 72 hrs by CellTiterGlo assay; settings: chlorocebus sabaeus, vero, 72 h
[4] = Selectivity index, ratio of CC50 for Vero cells to MIC90 for Mycobacterium tuberculosis H37Rv isolate SRI; format: functional

| SMILES | MIC90 [1] [µg/mL] | MIC90 [2] [µg/mL] | MIC90 [3] [µg/mL] | CC50 (Vero) [µg/mL] | Selectivity Index [4] |
| --- | --- | --- | --- | --- | --- |
| CCNc1n[n+]([O-])c2cc(Cl)ccc2[n+]1[O-] | 1.2 (≈ 4.99 µM) | < 0.12 | 0.41 (≈ 1.7 µM) | 2.6 (≈ 10.8 µM) | 2.1 |
| O=C1CN(/N=C/c2ccc([N+](=O)[O-])o2)C(=O)N1 [NITROFURANTOIN] | 16 (≈ 67.2 µM) | 28 (≈ 118 µM) | 32 (≈ 134 µM) | 23 (≈ 96.6 µM) | 1.1 |
| [O-][n+]1nc(N[C@@H]2C[C@H]3CC[C@@H]2C3)[n+]([O-])c2ccc(Br)cc21 | 0.31 (≈ 0.883 µM) | 0.36 (≈ 1.03 µM) | 0.41 (≈ 1.17 µM) | 0.8 (≈ 2.28 µM) | 2.6 |
| [O-][n+]1nc(N[C@@H]2C[C@H]3CC[C@@H]2C3)[n+]([O-])c2ccc(F)cc21 | 0.31 (≈ 1.07 µM) | < 0.12 | 0.21 (≈ 0.723 µM) | < 2.5 | <4 |
| COC(=O)/C=C/n1ccnc1[N+](=O)[O-] | 10 (≈ 50.7 µM) | 29 (≈ 147 µM) | 3.3 (≈ 16.7 µM) | 16 (≈ 81.2 µM) | 1.6 |
| CCCC(C)Nc1n[n+]([O-])c2ccccc2[n+]1[O-] (stereo unspecified) | 5 (≈ 20.1 µM) | 1.9 (≈ 7.65 µM) | 0.99 (≈ 3.99 µM) | 26 (≈ 105 µM) | 5.3 |
| [O-][n+]1nc(NC2CCCCC2)[n+]([O-])c2ccc(F)cc21 | 0.62 (≈ 2.23 µM) | 0.68 (≈ 2.44 µM) | 0.47 (≈ 1.69 µM) | < 2.5 | <4 |
| CO[C@H]1/C=C/O[C@@]2(C)Oc3c(C)c(O)c4c(O)c(c(/C=N/N5CCN(C)CC5)c(O)c4c3C2=O)NC(=O)/C(C)=C\C=C\[C@H](C)[C@H](O)[C@@H](C)[C@@H](O)[C@@H](C)[C@H](OC(C)=O)[C@@H]1C [RIFAMPIN] | 0.003 (≈ 0.00365 µM) | 0.041 (≈ 0.0498 µM) | 2 (≈ 2.43 µM) | > 50 | >15000 |
| COc1ccc2c(c1)[n+]([O-])nc(NC1CCC1)[n+]2[O-] | 0.62 (≈ 2.36 µM) | 0.96 (≈ 3.66 µM) | 0.9 (≈ 3.43 µM) | 9.8 (≈ 37.4 µM) | 16 |
| [O-][n+]1nc(N[C@@H]2C[C@H]3CC[C@@H]2C3)[n+]([O-])c2ccc(Cl)cc21 | 0.15 (≈ 0.489 µM) | 0.22 (≈ 0.717 µM) | 0.23 (≈ 0.75 µM) | 1.1 (≈ 3.59 µM) | 7.3 |
| Nc1n[n+]([O-])c2ccccc2[n+]1[O-] [TIRAPAZAMINE] | 5 (≈ 28.1 µM) | 3.7 (≈ 20.8 µM) | 7.3 (≈ 41 µM) | 8 (≈ 44.9 µM) | 1.6 |
| COc1cc2c(cc1C)[n+]([O-])nc(N[C@@H]1C[C@H]3CC[C@@H]1C3)[n+]2[O-] | 5 (≈ 15.8 µM) | 5.6 (≈ 17.7 µM) | 3.5 (≈ 11.1 µM) | > 50 | >10 |
| [O-][n+]1nc(NC2CC2)[n+]([O-])c2ccccc21 | 2.5 (≈ 11.5 µM) | – | 1.8 (≈ 8.25 µM) | 21 (≈ 96.2 µM) | 8.3 |
| Cc1ncc([N+](=O)[O-])n1CCO [METRONIDAZOLE] | > 10 | > 32 | 11 (≈ 64.3 µM) | > 16 | – |
| [O-][n+]1nc(NC2CCC2)[n+]([O-])c2ccc(Cl)cc21 | 0.15 (≈ 0.562 µM) | – | < 0.12 | 1.6 (≈ 6 µM) | 10 |
| O=C(Cn1ccnc1[N+](=O)[O-])NCCO [ETANIDAZOLE] | > 10 | > 32 | 26 (≈ 121 µM) | > 16 | – |
| CCNc1n[n+]([O-])c2cc(OC)ccc2[n+]1[O-] | 2.5 (≈ 10.6 µM) | 15 (≈ 63.5 µM) | 16 (≈ 67.7 µM) | – | 6.3 |
| COCCNC(=O)c1ccc2c(c1)[n+]([O-])c(O)c(C#N)[n+]2[O-] | > 20 | – | > 32 | > 16 | – |
| Cc1c(N2CCCC2)[n+]([O-])c2ccccc2[n+]1[O-] | > 10 | – | > 32 | > 16 | – |
